Laboratory results reported in ChEMBL document CHEMBL3259781 (J Med Chem, 2014).
Converted amounts (≈) assume the structure as drawn. Blank lines part the entries; values can stand above or below the compound they belong to.

How the values were obtained:
Adenosine receptor A2b = biological target: T1, Adenosine receptor A2b (Homo sapiens, UniProt P29275)
T1 sequence (P29275 whole entry): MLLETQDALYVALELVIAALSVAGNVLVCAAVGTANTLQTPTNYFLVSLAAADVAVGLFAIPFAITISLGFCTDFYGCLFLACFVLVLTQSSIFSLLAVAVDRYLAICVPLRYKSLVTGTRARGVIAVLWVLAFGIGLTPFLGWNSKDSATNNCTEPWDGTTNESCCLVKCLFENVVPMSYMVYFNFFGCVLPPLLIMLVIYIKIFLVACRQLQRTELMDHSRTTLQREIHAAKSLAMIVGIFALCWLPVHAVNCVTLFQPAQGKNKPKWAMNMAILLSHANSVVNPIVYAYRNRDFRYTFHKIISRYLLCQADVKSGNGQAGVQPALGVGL

Adenosine receptor A2a [1] = biological target: T2, Adenosine receptor A2a (Homo sapiens, UniProt P29274)
Adenosine receptor A3 [2] = biological target: T3, Adenosine receptor A3 (Homo sapiens, UniProt P0DMS8)
T3 sequence (P0DMS8 whole entry): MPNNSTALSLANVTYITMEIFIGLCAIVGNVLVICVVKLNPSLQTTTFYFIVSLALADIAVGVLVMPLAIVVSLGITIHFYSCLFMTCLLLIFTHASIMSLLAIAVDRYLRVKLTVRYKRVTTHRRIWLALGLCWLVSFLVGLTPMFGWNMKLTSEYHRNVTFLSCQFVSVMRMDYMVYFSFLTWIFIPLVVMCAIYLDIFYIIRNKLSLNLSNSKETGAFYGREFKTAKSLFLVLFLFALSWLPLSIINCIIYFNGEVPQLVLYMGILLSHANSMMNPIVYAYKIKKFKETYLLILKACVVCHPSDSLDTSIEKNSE

Rattus norvegicus [3] = species: Rattus norvegicus; experiment: Anticataleptic activity in rat assessed as minimum efficacious dose; assay type: functional; settings: read-out: MED
[4] = biological target: Adenosine receptor A2a (Rattus norvegicus) (UniProt P30543); experiment: Receptor occupancy at adenosine receptor A2a in rat striatum; assay type: tissue-based
Homo sapiens = species: Homo sapiens; experiment: Selectivity ratio of Ki for human recombinant adenosine A1 receptor to Ki for human recombinant adenosine receptor A2a
Adenosine receptor A1 [5] = biological target: T4, Adenosine receptor A1 (Homo sapiens, UniProt P30542)
T4 sequence (P30542 whole entry): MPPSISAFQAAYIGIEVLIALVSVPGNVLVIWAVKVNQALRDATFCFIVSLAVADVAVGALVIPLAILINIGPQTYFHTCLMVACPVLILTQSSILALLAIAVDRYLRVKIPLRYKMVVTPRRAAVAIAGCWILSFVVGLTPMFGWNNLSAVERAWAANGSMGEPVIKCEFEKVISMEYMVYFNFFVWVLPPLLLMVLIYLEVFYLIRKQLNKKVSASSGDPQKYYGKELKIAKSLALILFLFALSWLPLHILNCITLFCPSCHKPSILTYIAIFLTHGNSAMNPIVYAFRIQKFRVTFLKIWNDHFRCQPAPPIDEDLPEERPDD

Adenosine receptor A3 [6] = biological target: T3, Adenosine receptor A3; experiment: Binding affinity to human recombinant adenosine A3 receptor
Adenosine receptor A1 [7] = biological target: T4, Adenosine receptor A1; remark: listed apart in the source
Rattus norvegicus [8] = experiment: Anticataleptic activity in rat assessed as inhibition at 1 mg/kg, po after 1 hr; assay type: functional; settings: Rattus norvegicus, po, 1 h
Rattus norvegicus [9] = experiment: Anticataleptic activity in rat assessed as inhibition at 1 mg/kg, po after 4 hrs; assay type: functional; settings: Rattus norvegicus, po, 4 h
Rattus norvegicus [10] = experiment: Anticataleptic activity in po dosed rat assessed as inhibition of haloperidol-induced catalepsy; assay type: functional
Mus musculus = experiment: Anticataleptic activity in po dosed mouse assessed as inhibition of haloperidol-induced catalepsy; assay type: functional
[11] = Oral bioavailability in rat; assay type: ADME, organism-based; settings: in vivo
Rattus norvegicus [12] = experiment: Anticataleptic activity in rat assessed as inhibition at 3 mg/kg, po after 1 hr; assay type: functional
[13] = Plasma clearance in rat; assay type: ADME, organism-based
[14] = Solubility of the compound in water pH 7.4; assay type: physicochemical
[15] = Half life in rat; assay type: ADME, organism-based; settings: in vivo
Rattus norvegicus [16] = experiment: Induction of hypolocomotion in po dosed rat assessed as reduction in motor deficts; assay type: functional
Rattus norvegicus [17] = species: Rattus norvegicus; experiment: Selectivity ratio of Ki for rat striatal adenosine A1 receptor to Ki for rat recombinant adenosine receptor A2a
[18] = AUC in rat at 3 mg/kg, po; assay type: ADME, organism-based; parameters: dose 3 mg/kg, route oral; settings: plasma
Rattus norvegicus [19] = experiment: Anticataleptic activity in rat assessed as inhibition at 3 mg/kg, po after 4 hrs; assay type: functional
Adenosine receptor A1 [20] = biological target: T5, Adenosine receptor A1 (Rattus norvegicus, UniProt P25099); experiment: Binding affinity to rat recombinant adenosine A1 receptor
T5 sequence (P25099 whole entry): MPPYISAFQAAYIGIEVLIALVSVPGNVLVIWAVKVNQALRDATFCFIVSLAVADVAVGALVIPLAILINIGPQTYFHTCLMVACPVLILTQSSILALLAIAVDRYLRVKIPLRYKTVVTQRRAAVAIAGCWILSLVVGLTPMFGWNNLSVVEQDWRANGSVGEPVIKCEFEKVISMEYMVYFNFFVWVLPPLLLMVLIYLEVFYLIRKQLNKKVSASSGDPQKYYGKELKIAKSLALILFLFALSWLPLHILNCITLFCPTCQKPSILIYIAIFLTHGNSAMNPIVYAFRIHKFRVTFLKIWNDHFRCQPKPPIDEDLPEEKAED

Adenosine receptor A2a [21] = biological target: T2, Adenosine receptor A2a; remark: listed apart in the source

T2 sequence (P29274 whole entry): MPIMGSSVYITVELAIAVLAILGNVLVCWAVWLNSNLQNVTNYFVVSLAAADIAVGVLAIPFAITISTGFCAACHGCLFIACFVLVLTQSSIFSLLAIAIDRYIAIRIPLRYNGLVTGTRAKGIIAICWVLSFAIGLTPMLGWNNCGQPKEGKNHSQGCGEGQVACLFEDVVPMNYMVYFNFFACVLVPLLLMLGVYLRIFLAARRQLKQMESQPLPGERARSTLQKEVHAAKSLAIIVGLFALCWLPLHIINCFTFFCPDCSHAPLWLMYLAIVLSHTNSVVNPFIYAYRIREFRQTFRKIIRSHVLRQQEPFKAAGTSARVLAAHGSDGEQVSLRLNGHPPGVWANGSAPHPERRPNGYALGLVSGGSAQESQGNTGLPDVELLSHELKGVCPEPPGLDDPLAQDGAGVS
Sequence of Adenosine receptor A2a (Rattus norvegicus) (P30543 whole entry): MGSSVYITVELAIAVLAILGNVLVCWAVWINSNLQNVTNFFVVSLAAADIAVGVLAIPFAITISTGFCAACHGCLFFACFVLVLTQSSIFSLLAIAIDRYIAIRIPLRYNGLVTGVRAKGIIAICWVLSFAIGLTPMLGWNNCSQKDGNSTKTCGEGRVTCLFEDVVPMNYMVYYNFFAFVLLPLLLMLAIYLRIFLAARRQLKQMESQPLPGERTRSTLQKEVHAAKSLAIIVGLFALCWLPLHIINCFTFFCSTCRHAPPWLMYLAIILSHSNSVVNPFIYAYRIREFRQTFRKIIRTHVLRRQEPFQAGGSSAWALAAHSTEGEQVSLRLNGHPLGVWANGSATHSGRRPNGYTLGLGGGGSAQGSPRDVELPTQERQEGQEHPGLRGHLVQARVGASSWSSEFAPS

Ki (Adenosine receptor A2b): 0.141 µM
Ki (Adenosine receptor A2a [1]): 1.7 nM
Ki (Adenosine receptor A3 [2]): 1930 nM
Structure (SMILES): Nc1nc(-c2ccco2)c2ncn(C(=O)NCc3ccco3)c2n1

Ratio Ki (Homo sapiens): 669
Ki (Adenosine receptor A1 [5]): 602 nM
Structure (SMILES): COCCOc1ccc(N2CCN(CCn3cnc4c3nc(N)n3nc(-c5ccco5)nc43)CC2)cc1
inhibition in vivo at 1 mg/kg (Rattus norvegicus [8]): 55%
inhibition in vivo at 1 mg/kg (Rattus norvegicus [9]): 50%

Ratio Ki (Homo sapiens): 148
bioavailability [11]: 5.8%
Structure (SMILES): CC(C)c1nc(-c2nccs2)c2sccc2n1

Ki (Adenosine receptor A1 [5]): 40 nM
Structure (SMILES): Cc1cc(C)n(-c2cc(NC(=O)COc3cccc(CN(C)C)c3)nc(-c3ccc(C)o3)n2)n1
ED50 (Rattus norvegicus [10]): 10 mg/kg

Ratio Ki (Homo sapiens): 17
Ki (Adenosine receptor A1 [5]): 10.2 nM
Structure (SMILES): CC(=O)Nc1cc(-n2cccn2)nc(-c2ccco2)n1

Ratio Ki (Homo sapiens): 3
Ki (Adenosine receptor A1 [5]): 24 nM
Structure (SMILES): CC(O)CCc1nc(N)c2nc(-n3nccn3)n(C)c2n1 (configuration not stated)

Ratio Ki (Rattus norvegicus [17]): 3.4
Structure (SMILES): CC(O)(C#Cc1cn2nc(-c3ccco3)nc2c(N)n1)c1ccccc1 (configuration not stated)

Continued, compound first:

Structure (SMILES): CC(C)n1cc(-c2ncc(N)nc2-c2ccc(F)cc2)ccc1=O
minimal effective dose (Rattus norvegicus [3]): 0.1 mg/kg
Activity [4]: 85%
Ki (Adenosine receptor A3 [2]): > 557 nM

Structure (SMILES): COCCOc1ccc(N2CCN(CCn3cnc4c3nc(N)n3nc(-c5ccccn5)nc43)CC2)cc1
Ratio Ki (Homo sapiens): 108
Ki (Adenosine receptor A1 [5]): 1360 nM

Structure (SMILES): Nc1nnc(-c2ccccc2)c(-c2ccccc2)n1
Ki (Adenosine receptor A1 [5]): 270 nM

Structure (SMILES): CCNC(=O)[C@H]1O[C@@H](n2cnc3c(N)nc(C#CC[C@H]4CC[C@H](C(=O)OC)CC4)nc32)[C@H](O)[C@@H]1O [APADENOSON]
Ki (Adenosine receptor A3 [6]): 45 nM
Ki (Adenosine receptor A1 [7]): 77 nM

Structure (SMILES): Nc1nc(-c2ccccc2)c2c(n1)-c1cc(CN3CCCC3)ccc1C2=O
ED50 (Rattus norvegicus [10]): 0.5 mg/kg

Structure (SMILES): Nc1nc(-c2ccco2)c2c(n1)-c1ccccc1C2=O
ED50 (Mus musculus): 5 mg/kg

Structure (SMILES): Cc1cnc2c(c1)CN(CCn1ncc3c1nc(N)n1nc(-c4ccco4)nc31)CC2
inhibition in vivo at 3 mg/kg (Rattus norvegicus [12]): 80%
inhibition in vivo at 1 mg/kg (Rattus norvegicus [8]): 65%
clearance [13]: 4.7 mL/min/kg
solubility [14]: 100 µM (≈ 41.5 µg/mL)
half-life [15]: 678 min
Ki (Adenosine receptor A1 [5]): 358 nM

Structure (SMILES): CCNC(=O)[C@H]1O[C@@H](n2cnc3c(N)nc(NCCc4ccc(CCC(=O)NCCN)cc4)nc32)[C@H](O)[C@@H]1O
ID90 (Rattus norvegicus [16]): 3.4 mg/kg
ED50 (Rattus norvegicus [16]; Rattus norvegicus, po, read-out: ID50 (the source's name)): 0.5 mg/kg

Structure (SMILES): CN(CCN1CCN(c2ccc(F)cc2F)CC1)c1cc2nc(-c3cccc(C#N)c3)nn2c(N)n1
Ratio Ki (Homo sapiens): 620
Ki (Adenosine receptor A1 [5]): 1120 nM

Structure (SMILES): Nc1nc(-c2ccccc2)c2c(n1)-c1cc(NCCN3CCOCC3)ccc1C2=O
ED50 (Mus musculus): < 0.1 mg/kg

Structure (SMILES): Cc1ccc2cc(CCn3ncc4c3nc(N)n3nc(-c5ccco5)nc43)ccc2n1
Ratio Ki (Homo sapiens): 169
AUC [18]: 1400 ng·h/mL
inhibition in vivo at 3 mg/kg (Rattus norvegicus [12]): 86%
inhibition in vivo at 3 mg/kg (Rattus norvegicus [19]): 38%
Ki (Adenosine receptor A1 [5]): 406 nM

Structure (SMILES): O=C(Nc1ccc(F)cc1)Nc1ccc(Nc2nc(-c3ccccc3)nc3c2nnn3Cc2ccccc2)cc1
Ki (Adenosine receptor A1 [20]): 107 nM
Ki (Adenosine receptor A3 [6]): 92 nM
Ki (Adenosine receptor A2a [21]): 167 nM

Structure (SMILES): COc1ccc(C2CCOCC2)c2oc(NC(=O)c3ccnc(N4CCOCC4)c3)nc12
Ratio Ki (Homo sapiens): 351
Ki (Adenosine receptor A2a [1]): 25 nM
Ki (Adenosine receptor A1 [5]): 8780 nM

Structure (SMILES): O[C@H](c1cc(C(F)(F)F)nc2c(C(F)(F)F)cccc12)[C@@H]1CCCCN1 [(R,S)-MEFLOQUINE]
Ki (Adenosine receptor A2b): 7.07 µM

Structure (SMILES): COCc1cccc(CNC(=O)c2cc(-c3ccco3)nc(N)n2)n1
Ratio Ki (Homo sapiens): 25
bioavailability [11]: 90%
solubility [14]: > 450 µM
